“And” between values parts separate entries of the source, which are not always exact repeats. Identical values can stand only once.
Experiments:
[1] = tested on: rats subjected to Li-pilo induced SE; test: Quantification of cell densities after lithium-pilocarpine SE (Example 1); assay type: in vivo, rat; conditions: pilo-DZP compared to saline-saline rats
Method: The effects of increasing doses of the test compound were studied on 3 groups of rats. The animals of the first group received 10 mg/kg of the test compound, i.p., 1 h after the onset of SE (pilo-TC10) while the animals of groups 2 and 3 received 30 and 60 mg/kg of the test compound (pilo-TC30 and pilo-TC60), respectively.
Another group was injected with 2 mg/kg diazepam (DZP, i.m.) at 1 h after the onset of SE. This is a standard treatment to improve animals survival after SE (pilo-DZP). The control group received saline instead of pilocarpine and the test compound (saline-saline). The pilo-test compound rats surviving SE were then injected about 10 h after the first test compound injection with a second i.p. injection of the same dose of the test compound and were maintained under a twice daily treatment with the test compound for 6 additional days. Pilo-DZP received a second injection of 1 mg/kg DZP on the day of SE at about 10 h after the first one. Thereafter, Pilo-DZP and saline-saline rats received twice daily an equivalent volume of saline.
Quantification of cell densities was performed at […] after SE on 8 pilo-DZP, 8 pilo-TC10, 7 pilo-TC30, 7 pilo-TC60, and 6 saline-saline rats. At 14 days after SE, animals were deeply anesthetized with […] pentobarbital (Dolethal®, Vetoquinol, Lure, France. Brains were then removed and frozen. Serial 20 μm slices were cut in a cryostat, air-dried during several days before thionine staining.
Quantification of cell densities was performed with a 10×10 boxes 1 cm^2 microscopic grid on coronal sections according to the stereotaxic coordinates of the rat brain atlas (Paxinos and Watson, 1986, The Rat brain in Stereotaxic Coordinates, 2nd ed. Academic Press, San Diego). Cell counts were performed twice in a blind manner and were the average of at least 3 values from 2 adjacent sections in each individual animal. Counts involved only cells larger than 10 μm, smaller ones being considered as glial cells.
For the comparison of the characteristics of SE in pilo-saline and pilo-test compound animals, a non-paired Student's t-test was used. The comparison between the number of rats seizing in both groups was performed by means of a Chi square test. For neuronal damage, statistical analysis between groups was performed using ANOVA followed by a Fisher's test for multiple comparisons using the Statview software (Fisher R A, 1946a, Statistical Methods for Research Workers (10th edition) Oliver & Boyd, Edinburgh; Fisher R A, 1946b, The Design of Experiments (4th edition) Oliver & Boyd, Edinburgh)

[2] = tested on: rats subjected to li-pilo SE; test: Quantification of cell densities 14 days after lithium-pilocarpine SE (Example 2); assay type: in vivo, rat; conditions: 14 days after SE
Method: All rats received lithium chloride (3 meq/kg, i.p., Sigma, St Louis, Mo., U.S.A.) and about 20 h later, all animals received also methylscopolamine bromide (1 mg/kg, s.c., Sigma) that was administered to limit the peripheral effects of the convulsant. SE was induced by injecting pilocarpine hydrochloride (25 mg/kg, s.c., Sigma) 30 min after methylscopolamine. The effects of increasing doses of TC (RWJ) were studied in 5 groups of rats. […] The control group received vehicle instead of pilocarpine and TC.
At the moment, neuronal counting is still in progress in the second group of animals studied for epileptogenesis and long-term counting and the data concerning that part of the study will not be included in the present report. For neuronal counting, animals were deeply anesthetized with […] pentobarbital (Dolethal®, Vetoquinol, Lure, France). Brains were then removed and frozen. Serial 20 μm slices were cut in a cryostat, air-dried during several days before thionine staining. […] The grid of counting was placed on a well defined area of the cerebral structure of interest and counting was carried out with a microscopic enlargement of 200- or 400-fold defined for each single cerebral structure. Cell counts were performed twice on each side of three adjacent sections for each region by a single observer unaware of the animal's treatment. The number of cells obtained in the 12 counted fields in each cerebral structure was averaged. This procedure was used to minimize the potential errors that could result from double counting leading to overestimation of cell numbers. […] Counts involved only neurons with cell bodies larger than 10 μm. Cells with small cell bodies were considered as glial cells and were not counted.
For neuronal damage and epileptogenesis, statistical analysis between groups was performed by means of a one-way analysis of variance followed by a post-hoc Dunnett or Fisher test using the Statistica software.

[3] = DZP rats compared to control rats
[4] = DZP rats compared to control saline-treated rats
[5] = pilo-DZP (2.5 mg/kg i.m.), n = 7

For `CN1C(=O)CN=C(c2ccccc2)c2cc(Cl)ccc21` [DZP, diazepam, reference compound], the “cell loss, CA1 region of the hippocampus (pyramidal cell layer)” value [1] was 70% and 75%, the “cell loss, CA3a” value [1] was 54% and the “cell loss, CA3b” value [1] was 31%. For the same compound, the “cell loss, dorsal entorhinal cortex layer II” value [1] was 9%, the “cell loss, dorsal entorhinal cortex layers III-IV” value [1] was 15% and the “cell loss, hilus of the dentate gyrus” value [1] was 73%. The “cell loss, lateral thalamic nucleus” value [1] was 91%, the “cell loss, mediodorsal thalamic nucleus” value [1] was 56% and the “cell loss, piriform cortex layer II” value [1] was 53%. The “cell loss, piriform cortex layers III-IV” value [1] was “total”, the “cell loss, ventral entorhinal cortex layer II” value [1] was “totally preserved” and the “cell loss, ventral entorhinal cortex layers III-IV” value [1] was 44%. For the same compound, the “neurons surviving, all parts of the entorhinal cortex” value ([2]; DZP group) was 27-81%, the “neuronal damage, amygdala central nucleus” value [2, 3] was “no neuronal damage” and the “neuronal drop out, CA1 region of the hippocampus (pyramidal cell layer)” value [2, 3] was 85%. The “neuronal drop out, amygdala basolateral nucleus” value [2, 3] was 73%, the “neuronal drop out, amygdala medial dorsal anterior nucleus” value [2, 3] was 53% and the “neuronal drop out, thalamus central medial nucleus” value [2, 3] was 34%. The “neuronal drop out, thalamus dorsolateral medial dorsal nucleus” value [2, 3] was 40%, the “neuronal drop out, thalamus mediodorsal central nucleus” value [2, 3] was 18% and the “neuronal drop out, thalamus mediodorsal lateral nucleus” value [2, 3] was 24%. The “neuronal loss, CA3 region” value [2, 3] was 40%, the “neuronal loss, amygdala medial ventral posterior nucleus” value [2, 3] was 38% and the “neuronal loss, hilus of the dentate gyrus” value [2, 3] was 65% and 66%. The “neuronal loss, thalamus mediodorsal nucleus” value [2, 3] was 49%, the “neuronal loss, ventral lateral division of the dorsolateral thalamic nucleus” value [2, 3] was 90% and the “damage, dorsal entorhinal cortex layer II” value [2, 4] was 18%. The “damage, dorsal entorhinal cortex layers III-IV” value [2, 4] was 24%, the “damage, ventral entorhinal cortex layer II” value [2, 4] was 22% and 19% and the “damage, ventral entorhinal cortex layers III/IV” value [2, 4] was 74% and 73%. For the same compound, the “neuronal loss, piriform cortex dorsal layer II” value [2, 4] was 66%, the “neuronal loss, piriform cortex layer III” value [2, 4] was 94% and the “neuronal loss, piriform cortex ventral layer II” value [2, 4] was 89%. The “number of neuronal cell bodies, Amygdala, Basolateral” value [2, 5] was 12.8 ± 5.3, the “number of neuronal cell bodies, Amygdala, Medial, dorsal anterior” value [2, 5] was 40.0 ± 2.5 and the “number of neuronal cell bodies, Amygdala, Medial, ventral posterior” value [2, 5] was 21.8 ± 2.4. For the same compound, the “number of neuronal cell bodies, Cerebral cortex, Entorhinal, layer II, dorsal” value [2, 5] was 23.5 ± 0.7, the “number of neuronal cell bodies, Cerebral cortex, Entorhinal, layer II, ventral” value [2, 5] was 21.7 ± 1.3 and the “number of neuronal cell bodies, Cerebral cortex, Entorhinal, layer III/IV, dorsal” value [2, 5] was 22.3 ± 0.5. The “number of neuronal cell bodies, Cerebral cortex, Entorhinal, layer III/IV, ventral” value [2, 5] was 7.7 ± 2.3, the “number of neuronal cell bodies, Cerebral cortex, Piriform, layer II, dorsal” value [2, 5] was 12.6 ± 4.2 and the “number of neuronal cell bodies, Cerebral cortex, Piriform, layer II, ventral” value [2, 5] was 3.6 ± 0.7. The “number of neuronal cell bodies, Cerebral cortex, Piriform, layer III” value [2, 5] was 1.2 ± 1.2, the “number of neuronal cell bodies, Hippocampus, CA1 area” value [2, 5] was 10.9 ± 1.9 and the “number of neuronal cell bodies, Hippocampus, CA3 area” value [2, 5] was 31.3 ± 2.9. For the same compound, the “number of neuronal cell bodies, Hippocampus, Hilus” value [2, 5] was 33.5 ± 3.0, the “number of neuronal cell bodies, Thalamus, Central medial” value [2, 5] was 74.2 ± 7.4 and the “number of neuronal cell bodies, Thalamus, Dorsolateral, medial, dorsal” value [2, 5] was 61 ± 6.3. For the same compound, the “number of neuronal cell bodies, Thalamus, Dorsolateral, ventral lateral” value [2, 5] was 9.7 ± 2.5, the “number of neuronal cell bodies, Thalamus, Mediodorsal central” value [2, 5] was 26.3 ± 1.8 and the “number of neuronal cell bodies, Thalamus, Mediodorsal lateral” value [2, 5] was 19.6 ± 0.8. For the same compound, the “number of neuronal cell bodies, Thalamus, Mediodorsal medial” value [2, 5] was 16.4 ± 1.9.

From US20090137652A1, “METHODS FOR NEUROPROTECTION” (priority 2005, published 2009)
